Among the data in ChEMBL document CHEMBL4052697, “Chimeric analogs of human β-defensin 1 and θ-defensin disrupt pre-established bacterial biofilms” (2017) are MBC and MBEC values, retold here.

The structures appear in SMILES notation. Values after ≈ are worked out from the molar mass of the structure shown. Active and inactive are the calls of the source. No cut-off for these calls is given here. Positions of bridges follow the written chain, without caps; N, C: chain ends. Non-standard residues stand in square brackets, D forms with d. Residues, ends and D or L forms follow the SMILES beside them. NMeA = CN[C@@H](C)C(=O)O

Common to all, as to type: functional
Test [1] deals with Escherichia coli. Briefly: Bactericidal activity against Escherichia coli MG1655 planktonic forms.
The test system of test [2] is Staphylococcus aureus. The test can be described thus: Bactericidal activity against Staphylococcus aureus NCTC 8530 planktonic forms.
Test [3] deals with Staphylococcus aureus. The test can be described thus: Antibiofilm activity against pre-established 36 hrs old bacterial biofilms of Staphylococcus aureus NCTC 8530 assessed as reduction in number of viable bacterial cells incubated for 4 hrs by XTT assay. For orientation: Tetrazolium dyes change colour on reduction, which living cells bring about.
For test [4], the system named is Staphylococcus aureus. Briefly: Antibiofilm activity against pre-established 36 hrs old bacterial biofilms of Staphylococcus aureus NCTC 8530 incubated for 4 hrs by XTT assay.
Test [5] has as its system Escherichia coli. Briefly: Antibiofilm activity against pre-established 36 hrs old bacterial biofilms of Escherichia coli MG1655 incubated for 4 hrs by XTT assay.

Consider `CC[C@H](C)[C@@H]1NC(=O)[C@H](CCCCN)NC(=O)[C@H]([C@@H](C)O)NC(=O)[C@H](Cc2ccccc2)NC(=O)[C@H]([C@@H](C)CC)NC(=O)[C@@H]2CCCN2C(=O)[C@@H](NC(=O)[C@H](C)N)CSSC[C@@H](C(=O)N[C@@H](CCCNC(=N)N)C(=O)O)NC(=O)[C@H](CCCCN)NC(=O)[C@H](C)NC(=O)[C@H](CCCNC(=N)N)NC(=O)CNC(=O)[C@H](CCCNC(=N)N)NC(=O)[C@H](Cc2ccc(O)cc2)NC(=O)[C@H]([C@@H](C)O)NC(=O)CNC(=O)[C@H](CCC(N)=O)NC1=O` (H-ACPIFTKIQGTYRGRAKCR-OH; disulfide 2-18), for which the MBC in test [1] and in test [2] was 5 µM (≈ 10.8 µg/mL) throughout. For the same compound, the MBEC result in test [3] was “Active”.

As for `CCCCCCCCCCCCCC(=O)N[C@@H](CCC(=O)O)C(=O)N[C@@H](CC(C)C)C(=O)N[C@@H](CC(=O)O)C(=O)N[C@@H](CCCNC(=N)N)C(=O)N[C@H](C(=O)NCC(=O)N[C@@H](Cc1ccc(O)cc1)C(=O)NCC(=O)N[C@H](C(=O)N[C@@H](C)C(=O)N[C@@H](CCCNC(=N)N)C(=O)N[C@@H](CCCNC(=N)N)C(=O)N[C@H](CCCCN)C(=O)N[C@H](CCCCN)C(=O)N[C@@H](CCCNC(=N)N)C(=O)O)[C@@H](C)O)[C@@H](C)CC`, the figures for the minimal bactericidal concentration (MBC) in test [1] and in test [2] were 5 µM (≈ 10.1 µg/mL) and 10 µM (≈ 20.3 µg/mL), respectively. Besides, the MBEC result in test [4] and in test [5] was “inactive” in each case.

Take `CC[C@H](C)[C@H](NC(=O)[C@H](CCCNC(=N)N)NC(=O)[C@H](CC(=O)O)NC(=O)[C@H](CC(C)C)NC(=O)[C@@H](N)CCC(=O)O)C(=O)NCC(=O)N[C@@H](Cc1ccc(O)cc1)C(=O)NCC(=O)N[C@H](C(=O)N[C@@H](C)C(=O)N[C@@H](CCCNC(=N)N)C(=O)N[C@@H](CCCNC(=N)N)C(=O)N[C@H](CCCCN)C(=O)N[C@H](CCCCN)C(=O)N[C@@H](CCCNC(=N)N)C(=O)O)[C@@H](C)O`: the MBC – broadly, the lowest tested concentration that kills the bacteria rather than only halting them – in test [1] stood at 20 µM (≈ 36.4 µg/mL); in test [2] it was 60 µM (≈ 109 µg/mL). Moreover, the MBEC result in test [4] and in test [5] was “inactive” in each case.

On to `CCCCCCCCCCCCCC(=O)N[C@@H](CCC(=O)O)C(=O)N[C@@H](CC(C)C)C(=O)N[C@@H](CC(=O)O)C(=O)N[C@H](CCCNC(=N)N)C(=O)N[C@H](C(=O)NCC(=O)N[C@@H](Cc1ccc(O)cc1)C(=O)NCC(=O)N[C@H](C(=O)N[C@@H](C)C(=O)N[C@H](CCCNC(=N)N)C(=O)N[C@H](CCCNC(=N)N)C(=O)N[C@@H](CCCCN)C(=O)N[C@@H](CCCCN)C(=O)N[C@@H](CCCNC(=N)N)C(=O)O)[C@@H](C)O)[C@@H](C)CC`, for which the MBC in test [1] stood at 5 µM (≈ 10.1 µg/mL); in test [2], 10 µM (≈ 20.3 µg/mL). For the same compound, the MBEC result in test [4] and in test [5] was “inactive” throughout.

With `CC[C@H](C)[C@H](NC(=O)CNC(=O)[C@H](CCCNC(=N)N)NC(=O)[C@@H](NC(=O)[C@@H](NC(=O)[C@@H](NC(=O)CNC(=O)[C@H](Cc1ccc(O)cc1)NC(=O)[C@H](CCCNC(=N)N)NC(=O)[C@H](Cc1ccc(O)cc1)NC(=O)[C@H](CCC(=O)O)NC(=O)[C@@H](NC(=O)[C@H](CO)NC(=O)[C@H](Cc1ccc(O)cc1)NC(=O)[C@H](CO)NC(=O)[C@H](CCCNC(=N)N)NC(=O)[C@H](CCCNC(=N)N)NC(=O)[C@H](Cc1cnc[nH]1)NC(=O)[C@@H](NC(=O)[C@H](Cc1ccccc1)NC(=O)[C@H](C)NC)[C@@H](C)O)[C@@H](C)O)[C@@H](C)O)[C@@H](C)O)C(C)C)C(=O)N[C@@H](CCCNC(=N)N)C(=O)N[C@@H](Cc1cnc[nH]1)C(=O)N[C@@H](CCCNC(=N)N)C(=O)N[C@@H](Cc1ccccc1)C(=O)N[C@@H](CC(C)C)C(=O)O` (H-[NMeA]FTHRRSYSTEYRYGTTVRGIRHRFL-OH), the MBC in test [1] and in test [2] was 10 µM (≈ 32.5 µg/mL) in each case. For the same compound, the MBEC result in test [4] and in test [5] was “inactive” each time.
